{"source": "patent US20150164781A1", "about": "“Personal Care Products Containing Extracts of Chinese Lantern (Physalis alkekengi)” (Kemin Industries, Inc., priority 2013, published 2015)", "test": "Microtiter plate DPPH antioxidant assay", "conditions": "0.05 mg/mL DPPH, five minutes at 25° C., absorbance 517 nm; from polynomial regression", "protocol": "HPLC grade reagent alcohol was obtained from Fisher Scientific, catalog number A995-4. 2,2-Diphenyl-1-picrylhydrazyl (DPPH) was from Fisher Scientific, catalog number AA4415003. Trolox was from Fisher Scientific, catalog number 05-402-25. Test material was prepared as in Example 1 (LumiSalisTM SE lot 592142P5, 592142P8 and 592142P9). Absorbance was measured using a Molecular Devices SpectraMax M5e plate reader (KH51-001) with a clear, flat-bottom 96-well plate, […] Science […] catalog number CC plate-PS-965-F-C-S. Masses were measured with a Mettler Toledo analytical balance (Model X5204). […] The controls and samples were all plated in triplicate and the average absorbance value was used for results calculations. The plate was shaken and incubated at 25° C. in the microplate reader for five minutes. The absorbance was measured at 517 nm. The sample concentrations (x-axis) are plotted against their respective relative average absorbance value (subtracted the average absorbance of the background from the average absorbance) at 517 nm (y-axis) and the best fit line (a polynomial fit) is calculated. The […] (50% inhibition) of each control and sample were calculated based on the polynomial regression line equation."}
{"compound": "Cc1c(C)c2c(c(C)c1O)CCC(C)(C(=O)O)O2", "note": "(stereo not shown) [trolox, Trolox]", "values": [{"measurement": "IC50 on DPPH assay", "value": 0.0010, "unit": "%"}]}
